Experimental data: patent publication US11524968B2, “Heterocyclic compound as a protein kinase inhibitor” (HK inno.N Corporation, priority 2017, dated 2022)

Biological target: JAK1 (Homo sapiens (Human), UniProt P23458)
Assay: Analysis of JAK1 activity inhibition ability (ADP-Glo Kinase Assay)
Assay type: biochemical
Conditions: JAK1 enzyme, ADP-Glo luminescence, ATP 250 uM, IRS-itide substrate, 30° C. 40 minutes; read-out: IC50
Description: Test Example 1: Analysis of JAK1 Activity Inhibition Ability of Compound of Formula 1 (ADP-Glo™ Kinase Assay)
A JAK inhibition ability of a compound according to the present invention was identified as follows.
A control material and a test material were prepared for each concentration, in such a way that they were diluted by means of DMSO. At the same time, ATP (250 uM) and JAK substrate (JAK1, IRS-itide 40 ng/mL) were prepared, in such a way that they were diluted by means of kinase buffer (40 mM Tris-HCl pH 7.5, 20 mM MgCl2, 0.5 mg/mL BSA, 50 uM DTT).
A test drug for each concentration, substrate, ATP and JAK enzyme were mixed in an eppendorf tube, and reacted in a 30° C. incubator for 40 minutes.
ADP-Glo™ reagent contained in ADP-Glo™ Kinase Enzyme System (Promega, USA, V9571) was added into each eppendorf tube, and reacted in a 30° C. incubator for 40 minutes. A kinase detection reagent contained in ADP-Go™ Kinase Enzyme System was inserted into the eppendorf tube, then an integration time was set to 1 second by using Wallac Victor 2™, then luminescence was measured, and then JAKs phosphorylation inhibition ability of the test material was analyzed. The concentration of the compound, which causes 50% of the JAK enzyme activity inhibition in comparison With the control group, was determined as IC50 (nM) of an inhibitor, wherein the results thereof are shown in a following table 1.

Chain of JAK1 (P23458 whole entry): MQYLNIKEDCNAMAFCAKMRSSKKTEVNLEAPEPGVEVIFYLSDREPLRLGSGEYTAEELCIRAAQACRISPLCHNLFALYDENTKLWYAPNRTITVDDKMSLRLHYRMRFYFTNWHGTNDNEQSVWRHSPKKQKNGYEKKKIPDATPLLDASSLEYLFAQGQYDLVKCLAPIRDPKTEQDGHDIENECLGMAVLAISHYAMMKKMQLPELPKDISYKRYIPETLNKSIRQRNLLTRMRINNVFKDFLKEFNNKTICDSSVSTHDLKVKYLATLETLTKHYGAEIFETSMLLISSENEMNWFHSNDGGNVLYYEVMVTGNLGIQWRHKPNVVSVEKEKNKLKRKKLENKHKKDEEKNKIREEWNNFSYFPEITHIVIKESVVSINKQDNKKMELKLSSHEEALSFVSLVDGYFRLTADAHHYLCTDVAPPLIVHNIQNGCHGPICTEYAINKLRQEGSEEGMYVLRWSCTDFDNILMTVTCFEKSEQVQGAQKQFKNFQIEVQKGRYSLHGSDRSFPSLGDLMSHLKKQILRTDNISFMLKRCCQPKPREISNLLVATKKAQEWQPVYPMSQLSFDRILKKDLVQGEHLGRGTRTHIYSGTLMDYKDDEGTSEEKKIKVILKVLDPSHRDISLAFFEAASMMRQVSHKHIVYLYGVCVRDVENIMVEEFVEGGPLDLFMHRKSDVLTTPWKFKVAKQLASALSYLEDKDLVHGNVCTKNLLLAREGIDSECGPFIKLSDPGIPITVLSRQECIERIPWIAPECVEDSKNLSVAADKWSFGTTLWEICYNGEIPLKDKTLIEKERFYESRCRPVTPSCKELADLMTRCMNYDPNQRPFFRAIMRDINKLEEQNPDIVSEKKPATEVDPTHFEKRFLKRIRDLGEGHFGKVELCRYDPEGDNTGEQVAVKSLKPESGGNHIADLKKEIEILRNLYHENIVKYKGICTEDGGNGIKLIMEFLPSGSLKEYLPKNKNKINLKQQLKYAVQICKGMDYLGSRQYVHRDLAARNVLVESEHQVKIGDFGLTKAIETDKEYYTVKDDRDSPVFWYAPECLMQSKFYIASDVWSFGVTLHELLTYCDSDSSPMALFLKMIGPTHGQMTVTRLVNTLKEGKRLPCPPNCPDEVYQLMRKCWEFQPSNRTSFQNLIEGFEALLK

SMILES	IC50 [nM]
O=C(Nc1cc(-c2ccc(CC(=O)N3CCC(C(F)(F)F)CC3)cc2)c2cc[nH]c2n1)C1CC1 [Example 570, N-(4-(4-(2-oxo-2-(4-(trifluoromethyl)piperidin-1-yl)ethyl)phenyl)-1H-pyrrolo[2,3-b]pyridin-6-yl)cyclopropanecarboxamide]	20 to 200
CC(=O)c1cccc(C(=O)N2CC=C(c3cc(NC(=O)C4CC4)nc4[nH]ccc34)C(C)C2)c1 (stereo not drawn) [Example 332, N-(4-(1-(3-acetylbenzoyl)-3-methyl-1,2,3,6-tetrahydropyridin-4-yl)-1H-pyrrolo[2,3-b]pyridin-6-yl)cyclopropanecarboxamide]	> 200
N#CCCCn1ccc2c(-c3ccc(OS(=O)(=O)CCCC#N)cc3)cc(NC(=O)C3CC3)nc21 [Example 640, 4-(1-(3-cyanopropyl)-6-(cyclopropanecarboxamido)-1H-pyrrolo[2,3-b]pyridin-4-yl)phenyl 3-cyanopropane-1-sulfonate]	> 200
O=C(Nc1cc(-c2ccc(NC3CN(C(=O)CC(F)(F)F)C3)cc2)c2cc[nH]c2n1)C1CC1 [Example 517, N-(4-(4-((1-(3,3,3-trifluoropropanoyl)azetidin-3-yl)amino)phenyl)-1H-pyrrolo[2,3-b]pyridin-6-yl)cyclopropanecarboxamide]	20 to 200
CCCCNC(=O)Nc1ccc(-c2cc(NC(=O)C3CC3)nc3[nH]ccc23)cc1 [Example 433, N-(4-(4-(3-butylureido)phenyl)-1H-pyrrolo[2,3-b]pyridin-6-yl)cyclopropanecarboxamide]	20 to 200
O=C(Nc1cc(-c2ccc(CN3CCS(=O)(=O)CC3)cc2)c2cc[nH]c2n1)NC1CC1 [Example 717, 1-cyclopropyl-3-(4-(4-((1,1-dioxidothiomorpholino)methyl)phenyl)-1H-pyrrolo[2,3-b]pyridin-6-yl)urea]	20 to 200
CC(C)S(=O)(=O)Oc1ccc(-c2cc(NC(=O)C3CC3)nc3[nH]ccc23)cc1 [Example 633, 4-(6-(cyclopropanecarboxamido)-1H-pyrrolo[2,3-b]pyridin-4-yl)phenyl propane-2-sulfonate]	20 to 200
C[C@@H]1C=C(c2cc(NC(=O)C3CC3)nc3[nH]ccc23)CCN1C(=O)CC#N [Example 388, (R)—N-(4-(1-(2-cyanoacetyl)-6-methyl-1,2,3,6-tetrahydropyridin-4-yl)-1H-pyrrolo[2,3-b]pyridin-6-yl)cyclopropanecarboxamide]	< 20
N#CCNC(=O)c1ccc(-c2cc(NC(=O)C3CC3)nc3[nH]ccc23)cc1F [Example 528, N-(cyanomethyl)-4-(6-(cyclopropanecarboxamido)-1H-pyrrolo[2,3-b]pyridin-4-yl)-2-fluorobenzamide]	20 to 200
N#CCCCS(=O)(=O)Nc1ccc(-c2cc(NC(=O)C3CC3)nc3[nH]ccc23)cc1F [Example 77, N-(4-(4-((3-cyanopropyl)sulfonamido)-3-fluorophenyl)-1H-pyrrolo[2,3-b]pyridin-6-yl)cyclopropanecarboxamide]	< 20
CC(C)(C#N)CCS(=O)(=O)Nc1ccc(-c2cc(NC(=O)C3CC3)nc3[nH]ccc23)cc1F [Example 87, N-(4-(4-((3-cyano-3-methylbutyl)sulfonamido)-3-fluorophenyl)-1H-pyrrolo[2,3-b]pyridin-6-yl)cyclopropanecarboxamide]	20 to 200
O=C(Nc1nc(-c2ccc(NS(=O)(=O)c3cccc(F)c3)cc2)c2cc[nH]c2n1)C1CC1 [Example 192, N-(4-(4-((3-fluorophenyl)sulfonamido)phenyl)-7H-pyrrolo[2,3-d]pyrimidin-2-yl)cyclopropanecarboxamide]	< 20
C=CCS(=O)(=O)N[C@H]1CCN(c2nc(NC(=O)C3CC3)nc3[nH]ccc23)C1 [Example 671, (S)—N-(4-(3-(allylsulfonamido)pyrrolidin-1-yl)-7H-pyrrolo[2,3-d]pyrimidin-2-yl)cyclopropanecarboxamide]	> 200
O=C(Nc1cc(-c2ccc(NS(=O)(=O)c3ccc(Br)c(F)c3)cc2)c2cc[nH]c2n1)C1CC1 [Example 31, N-(4-(4-((4-bromo-3-fluorophenyl)sulfonamido)phenyl)-1H-pyrrolo[2,3-b]pyridin-6-yl)cyclopropanecarboxamide]	20 to 200
Cc1c(NS(=O)(=O)C2CC2)ccc(-c2cc(NC(=O)C3CC3)[n+]([O-])c3[nH]ccc23)c1C [Example 136, 6-(cyclopropanecarboxamido)-4-(4-(cyclopropanesulfonamido)-2,3-dimethylphenyl)-1H-pyrrolo[2,3-b]pyridine 7-oxide]	20 to 200
O=C(Nc1cc(N2CCN(CC(=O)N3CCS(=O)(=O)CC3)CC2)c2cc[nH]c2n1)C1CC1 [Example 702, N-(4-(4-(2-(1,1-dioxidothiomorpholino)-2-oxoethyl)piperazin-1-yl)-1H-pyrrolo[2,3-b]pyridin-6-yl)cyclopropanecarboxamide]	> 200
O=C(Nc1cc(C2=CCN(C(=O)C(F)(F)F)CC2)c2cc[nH]c2n1)C1CC1 [Example 272, N-(4-(1-(2,2,2-trifluoroacetyl)-1,2,3,6-tetrahydropyridin-4-yl)-1H-pyrrolo[2,3-b]pyridin-6-yl)cyclopropanecarboxamide]	20 to 200
N#CC1(CS(=O)(=O)Nc2ccc(-c3cc(NC(=O)C4CC4)nc4[nH]ccc34)cc2)CC1 [Example 88, N-(4-(4-(((1-cyanocyclopropyl)methyl)sulfonamido)phenyl)-1H-pyrrolo[2,3-b]pyridin-6-yl)cyclopropanecarboxamide]	< 20
CCS(=O)(=O)N1CCN(C(=O)Cc2ccc(-c3cc(NC(=O)C4CC4)nc4[nH]ccc34)cc2)CC1 [Example 563, N-(4-(4-(2-(4-(ethylsulfonyl)piperazin-1-yl)-2-oxoethyl)phenyl)-1H-pyrrolo[2,3-b]pyridin-6-yl)cyclopropanecarboxamide]	20 to 200
Cn1cncc1S(=O)(=O)Nc1ccc(-c2cc(NC(=O)C3CC3)nc3[nH]ccc23)cc1 [Example 15, N-(4-(4-((1-methyl-1H-imidazole)-5-sulfonamido)phenyl)-1H-pyrrolo[2,3-b]pyridin-6-yl)cyclopropanecarboxamide]	20 to 200
N#CCCCS(=O)(=O)Nc1ccc(-c2nc(NC(=O)C3CC3)nc3[nH]ccc23)cc1 [Example 186, N-(4-(4-((3-cyanopropyl)sulfonamido)phenyl)-7H-pyrrolo[2,3-d]pyrimidin-2-yl)cyclopropanecarboxamide]	20 to 200
CCS(=O)(=O)N1CC(CC#N)(N2CC=C(c3cc(NC(=O)C4CC4)nc4[nH]ccc34)[C@H](C)C2)C1 [Example 627, (S)—N-(4-(1-(3-(cyanomethyl)-1-(ethylsulfonyl)azetidin-3-yl)-3-methyl-1,2,3,6-tetrahydropyridin-4-yl)-1H-pyrrolo[2,3-b]pyridin-6-yl)cyclopropanecarboxamide]	< 20
CC1(C)CC(c2cc(NC(=O)C3CC3)nc3[nH]ccc23)=CCN1C(=O)c1ccnc(F)c1 [Example 385, N-(4-(1-(2-fluoroisonicotinoyl)-2,2-dimethyl-1,2,3,6-tetrahydropyridin-4-yl)-1H-pyrrolo[2,3-b]pyridin-6-yl)cyclopropanecarboxamide]	< 20
CCS(=O)(=O)N(C)[C@H]1CCN(c2cc(NC(=O)C3CC3)nc3[nH]ccc23)C1 [Example 672, (S)—N-(4-(3-(N-methylethylsulfonamido)pyrrolidin-1-yl)-1H-pyrrolo[2,3-b]pyridin-6-yl)cyclopropanecarboxamide]	> 200
O=C(Nc1cc(-c2ccc(NS(=O)(=O)N3CCCC3)c(F)c2)c2cc[nH]c2n1)C1CC1 [Example 225, N-(4-(3-fluoro-4-(pyrrolidine-1-sulfonamido)phenyl)-1H-pyrrolo[2,3-b]pyridin-6-yl)cyclopropanecarboxamide]	< 20
O=C(Nc1cc(-c2ccc(NS(=O)(=O)N3CCCCC3)cc2)c2cc[nH]c2n1)C1CC1 [Example 219, N-(4-(4-(piperidine-1-sulfonamido)phenyl)-1H-pyrrolo[2,3-b]pyridin-6-yl)cyclopropanecarboxamide]	< 20
CCS(=O)(=O)Nc1ccc(-c2nc(Nc3ccccc3)nc3[nH]ccc23)cc1 [Example 720, N-(4-(2-(phenylamino)-7H-pyrrolo[2,3-d]pyrimidin-4-yl)phenyl)ethanesulfonamide]	20 to 200
O=C(Nc1cc(-c2ccc(NS(=O)(=O)N3CCCC3)cc2)c2cc[nH]c2n1)C1CC1 [Example 218, N-(4-(4-(pyrrolidine-1-sulfonamido)phenyl)-1H-pyrrolo[2,3-b]pyridin-6-yl)cyclopropanecarboxamide]	< 20
O=C(Nc1nc(-c2ccc(NS(=O)(=O)c3ccc(F)c(F)c3)cc2)c2nc[nH]c2n1)C1CC1 [Example 208, N-(6-(4-((3,4-difluorophenyl)sulfonamido)phenyl)-9H-purin-2-yl)cyclopropanecarboxamide]	> 200
CCCCNC(=O)N1C2C=C(c3cc(NC(=O)C4CC4)nc4[nH]ccc34)CC1CC2 (stereo not drawn) [Example 449, N-butyl-3-(6-(cyclopropanecarboxamido)-1H-pyrrolo[2,3-b]pyridin-4-yl)-8-azabicyclo[3.2.1]oct-2-ene-8-carboxamide]	20 to 200
